This note sets out measurements from the supplement of paper PMC10307832.

Holding throughout (experiment): relative viability (nuclei count vs DMSO), 5 days (fraction); higher = more cells survive
Compound in the assay “VX-702 + Bortezomib”: NC(=O)c1ccc(N(C(N)=O)c2c(F)cccc2F)nc1-c1ccc(F)cc1F [VX-702] + CC(C)C[C@H](NC(=O)[C@H](Cc1ccccc1)NC(=O)c1cnccn1)B(O)O [Bortezomib] (partner 0.002 µM)
The method, boiled down: (§1)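 Relative viability equals treated-well nuclei counts divided by vehicle-well nuclei counts. Counts came from 4× images of lung cancer cell lines grown in 1536-well plates for 5 days after pin-tool dosing on the day after seeding. Dosing used one drug alone or a fixed anchor-drug dose plus five library-drug doses (not always all listed) in √10 steps, and values are medians of duplicate plates.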

Compound in the assay “Dabrafenib + Tozasertib”: CC(C)(C)c1nc(-c2cccc(NS(=O)(=O)c3c(F)cccc3F)c2F)c(-c2ccnc(N)n2)s1 [Dabrafenib] + Cc1cc(Nc2cc(N3CCN(C)CC3)nc(Sc3ccc(NC(=O)C4CC4)cc3)n2)n[nH]1 [Tozasertib] (partner 0.1 µM)
The method, boiled down:
as §1

Compound in the assay “VX-702 + Foretinib”: NC(=O)c1ccc(N(C(N)=O)c2c(F)cccc2F)nc1-c1ccc(F)cc1F [VX-702] + COc1cc2c(Oc3ccc(NC(=O)C4(C(=O)Nc5ccc(F)cc5)CC4)cc3F)ccnc2cc1OCCCN1CCOCC1 [Foretinib] (partner 0.25 µM)
The method, boiled down:
as §1

Compound in the assay “VX-702 + Linsitinib”: NC(=O)c1ccc(N(C(N)=O)c2c(F)cccc2F)nc1-c1ccc(F)cc1F [VX-702] + C[C@]1(O)C[C@@H](c2nc(-c3ccc4ccc(-c5ccccc5)nc4c3)c3c(N)nccn32)C1 [Linsitinib] (partner 1 µM)
The method, boiled down: as §1

As for NCI-H322M, the relative viability with VX-702 + Bortezomib (first compound 0.02 µM) turned out to be 1.22; with VX-702 + Bortezomib (first compound 0.2 µM) it was 1.25; with VX-702 + Bortezomib (first compound 0.6325 µM) it was 1.31; with VX-702 + Bortezomib (first compound 2 µM), 1.18; with Dabrafenib + Tozasertib (first compound 0.009487 µM), 0.49; with Dabrafenib + Tozasertib (first compound 0.03 µM), 0.373. For the same cell line, the relative viability was 0.446 with Dabrafenib + Tozasertib (first compound 0.09487 µM); 0.436 in the assay with Dabrafenib + Tozasertib (first compound 0.3 µM); 0.964 in the assay with VX-702 + Foretinib (first compound 0.02 µM); 0.875 in the assay with VX-702 + Foretinib (first compound 0.2 µM); 0.932 with VX-702 + Foretinib (first compound 0.6325 µM); 1 with VX-702 + Foretinib (first compound 2 µM). For the same cell line, the relative viability is 0.999 with VX-702 + Linsitinib (first compound 0.02 µM), 0.905 with VX-702 + Linsitinib (first compound 0.2 µM), 0.918 with VX-702 + Linsitinib (first compound 0.6325 µM) and 0.883 with VX-702 + Linsitinib (first compound 2 µM).

Regarding NCI-H441, the relative viability amounted to 0.641 with VX-702 + Bortezomib (first compound 0.02 µM); 0.463 in the assay with VX-702 + Bortezomib (first compound 0.2 µM); 0.492 in the assay with VX-702 + Bortezomib (first compound 0.6325 µM); 0.575 with VX-702 + Bortezomib (first compound 2 µM); 0.555 with Dabrafenib + Tozasertib (first compound 0.009487 µM); 0.632 in the assay with Dabrafenib + Tozasertib (first compound 0.03 µM). Moreover, the relative viability with Dabrafenib + Tozasertib (first compound 0.09487 µM) was 0.571; with Dabrafenib + Tozasertib (first compound 0.3 µM), 0.495; with VX-702 + Foretinib (first compound 0.02 µM) it was 0.955; in the assay with VX-702 + Foretinib (first compound 0.2 µM) it was 0.774; with VX-702 + Foretinib (first compound 0.6325 µM), 0.984; in the assay with VX-702 + Foretinib (first compound 2 µM), 1.12. Moreover, the relative viability with VX-702 + Linsitinib (first compound 0.02 µM) worked out at 0.699; with VX-702 + Linsitinib (first compound 0.2 µM), 0.429; with VX-702 + Linsitinib (first compound 0.6325 µM), 0.369; in the assay with VX-702 + Linsitinib (first compound 2 µM), 0.747.

NCI-H460: the relative viability turned out to be 1.14 in the assay with VX-702 + Bortezomib (first compound 0.02 µM); 1.15 in the assay with VX-702 + Bortezomib (first compound 0.2 µM); 1.22 with VX-702 + Bortezomib (first compound 0.6325 µM); 1.17 in the assay with VX-702 + Bortezomib (first compound 2 µM); 0.0459 in the assay with Dabrafenib + Tozasertib (first compound 0.003 µM); 0.482 with Dabrafenib + Tozasertib (first compound 0.009487 µM). Also, the relative viability amounted to 0.436 with Dabrafenib + Tozasertib (first compound 0.03 µM); 0.374 with Dabrafenib + Tozasertib (first compound 0.09487 µM); 0.375 with Dabrafenib + Tozasertib (first compound 0.3 µM); 1.06 with VX-702 + Foretinib (first compound 0.02 µM); 0.998 in the assay with VX-702 + Foretinib (first compound 0.2 µM); 1.12 with VX-702 + Foretinib (first compound 0.6325 µM). The relative viability in the assay with VX-702 + Foretinib (first compound 2 µM) stood at 1.08; in the assay with VX-702 + Linsitinib (first compound 0.02 µM), 0.879; with VX-702 + Linsitinib (first compound 0.2 µM), 0.837; in the assay with VX-702 + Linsitinib (first compound 0.6325 µM) it was 0.825; with VX-702 + Linsitinib (first compound 2 µM), 0.814.

In the case of NCI-H520, the relative viability with VX-702 + Bortezomib (first compound 0.02 µM) stood at 0.4; with VX-702 + Bortezomib (first compound 0.2 µM), 0.663; with VX-702 + Bortezomib (first compound 0.6325 µM), 0.479; with VX-702 + Bortezomib (first compound 2 µM) it was 0.677; with Dabrafenib + Tozasertib (first compound 0.003 µM) it was 0.431; in the assay with Dabrafenib + Tozasertib (first compound 0.009487 µM) it was 0.486. The relative viability was 0.417 with Dabrafenib + Tozasertib (first compound 0.09487 µM); 0.408 with Dabrafenib + Tozasertib (first compound 0.3 µM); 0.876 in the assay with VX-702 + Foretinib (first compound 0.02 µM); 0.73 with VX-702 + Foretinib (first compound 0.2 µM); 0.607 with VX-702 + Foretinib (first compound 0.6325 µM); 0.744 in the assay with VX-702 + Foretinib (first compound 2 µM). Further, the relative viability in the assay with VX-702 + Linsitinib (first compound 0.02 µM) was 0.962; with VX-702 + Linsitinib (first compound 0.2 µM), 0.936; with VX-702 + Linsitinib (first compound 0.6325 µM), 0.915; with VX-702 + Linsitinib (first compound 2 µM), 0.925.

Take NCI-H596: the relative viability with VX-702 + Bortezomib (first compound 0.02 µM) came out at 1.2; with VX-702 + Bortezomib (first compound 0.2 µM), 0.963; with VX-702 + Bortezomib (first compound 0.6325 µM) it was 0.962; in the assay with VX-702 + Bortezomib (first compound 2 µM), 1.25; with Dabrafenib + Tozasertib (first compound 0.009487 µM) it was 0.781; with Dabrafenib + Tozasertib (first compound 0.03 µM) it was 0.826. In addition, the relative viability was found to be 0.821 with Dabrafenib + Tozasertib (first compound 0.09487 µM); 0.977 with Dabrafenib + Tozasertib (first compound 0.3 µM); 0.79 in the assay with VX-702 + Foretinib (first compound 0.02 µM); 0.82 with VX-702 + Foretinib (first compound 0.2 µM); 1.11 in the assay with VX-702 + Foretinib (first compound 0.6325 µM); 0.992 in the assay with VX-702 + Foretinib (first compound 2 µM). Besides, the relative viability was 0.996 with VX-702 + Linsitinib (first compound 0.02 µM), 1.1 with VX-702 + Linsitinib (first compound 0.2 µM), 1.02 in the assay with VX-702 + Linsitinib (first compound 0.6325 µM) and 1.1 with VX-702 + Linsitinib (first compound 2 µM).

Take NCI-H647: the relative viability amounted to 1.14 with VX-702 + Bortezomib (first compound 0.02 µM); 0.84 in the assay with VX-702 + Bortezomib (first compound 0.2 µM); 1.25 with VX-702 + Bortezomib (first compound 0.6325 µM); 1.41 with VX-702 + Bortezomib (first compound 2 µM); 0.388 with Dabrafenib + Tozasertib (first compound 0.003 µM); 0.292 with Dabrafenib + Tozasertib (first compound 0.009487 µM). The relative viability with Dabrafenib + Tozasertib (first compound 0.03 µM) came out at 0.27; with Dabrafenib + Tozasertib (first compound 0.09487 µM) it was 0.298; with Dabrafenib + Tozasertib (first compound 0.3 µM), 0.434; with VX-702 + Foretinib (first compound 0.02 µM), 1.22; with VX-702 + Foretinib (first compound 0.2 µM), 1.08; in the assay with VX-702 + Foretinib (first compound 0.6325 µM) it was 1. In addition, the relative viability worked out at 1.4 with VX-702 + Foretinib (first compound 2 µM); 1.21 in the assay with VX-702 + Linsitinib (first compound 0.02 µM); 0.941 with VX-702 + Linsitinib (first compound 0.2 µM); 1.18 with VX-702 + Linsitinib (first compound 0.6325 µM); 1.4 in the assay with VX-702 + Linsitinib (first compound 2 µM).

NCI-H650: the relative viability with VX-702 + Bortezomib (first compound 0.02 µM) is 0.802; in the assay with VX-702 + Bortezomib (first compound 0.6325 µM) it was 1.05; with VX-702 + Bortezomib (first compound 2 µM), 1.07; in the assay with Dabrafenib + Tozasertib (first compound 0.009487 µM), 0.667; with Dabrafenib + Tozasertib (first compound 0.03 µM), 0.738; with Dabrafenib + Tozasertib (first compound 0.09487 µM), 0.502. Also, the relative viability worked out at 0.38 with Dabrafenib + Tozasertib (first compound 0.3 µM); 1.01 in the assay with VX-702 + Foretinib (first compound 0.02 µM); 1.11 with VX-702 + Foretinib (first compound 0.6325 µM); 1.25 with VX-702 + Foretinib (first compound 2 µM); 0.927 with VX-702 + Linsitinib (first compound 0.02 µM); 1.07 in the assay with VX-702 + Linsitinib (first compound 0.6325 µM). In addition, the relative viability in the assay with VX-702 + Linsitinib (first compound 2 µM) came out at 1.12.

For the cell line NCI-H661, the relative viability was determined as 0.731 in the assay with VX-702 + Bortezomib (first compound 0.02 µM); 0.731 with VX-702 + Bortezomib (first compound 0.2 µM); 1.11 with VX-702 + Bortezomib (first compound 0.6325 µM); 1.21 with VX-702 + Bortezomib (first compound 2 µM); 0.344 in the assay with Dabrafenib + Tozasertib (first compound 0.003 µM); 0.364 with Dabrafenib + Tozasertib (first compound 0.009487 µM). Further, the relative viability with Dabrafenib + Tozasertib (first compound 0.03 µM) stood at 0.372; with Dabrafenib + Tozasertib (first compound 0.09487 µM), 0.38; with Dabrafenib + Tozasertib (first compound 0.3 µM) it was 0.352; with VX-702 + Foretinib (first compound 0.02 µM), 1.11; in the assay with VX-702 + Foretinib (first compound 0.2 µM), 1.08; with VX-702 + Foretinib (first compound 0.6325 µM), 1.12. Also, the relative viability with VX-702 + Foretinib (first compound 2 µM) was found to be 1.1; in the assay with VX-702 + Linsitinib (first compound 0.02 µM), 0.523; with VX-702 + Linsitinib (first compound 0.2 µM), 0.587; with VX-702 + Linsitinib (first compound 0.6325 µM) it was 0.5; in the assay with VX-702 + Linsitinib (first compound 2 µM), 0.826.

In the case of NCI-H727, the relative viability with VX-702 + Bortezomib (first compound 0.02 µM) came out at 0.657; in the assay with VX-702 + Bortezomib (first compound 0.2 µM), 0.743; in the assay with VX-702 + Bortezomib (first compound 0.6325 µM), 0.939; in the assay with VX-702 + Bortezomib (first compound 2 µM), 0.976; with Dabrafenib + Tozasertib (first compound 0.009487 µM), 0.754; with Dabrafenib + Tozasertib (first compound 0.03 µM), 0.654. In addition, the relative viability with Dabrafenib + Tozasertib (first compound 0.09487 µM) came to 0.667; with Dabrafenib + Tozasertib (first compound 0.3 µM), 0.793; in the assay with VX-702 + Foretinib (first compound 0.02 µM), 0.936; in the assay with VX-702 + Foretinib (first compound 0.2 µM), 0.806; with VX-702 + Foretinib (first compound 0.6325 µM), 0.824; with VX-702 + Foretinib (first compound 2 µM), 0.813. The relative viability worked out at 0.516 in the assay with VX-702 + Linsitinib (first compound 0.02 µM), 0.271 with VX-702 + Linsitinib (first compound 0.2 µM), 0.259 with VX-702 + Linsitinib (first compound 0.6325 µM) and 0.306 in the assay with VX-702 + Linsitinib (first compound 2 µM).
